Read-outs that look alike come from different tables or passages of the source. Ends that are not written are not given here.
Tests used:
USP20 DUSP2 domain [1] = biological target: T1, USP20 DUSP2 domain (Homo sapiens, UniProt Q9Y2K6); test: FP-monitored affinity measurements, USP20 DUSP2; assay type: binding
T1 construct: USP20_DUSP2; Q9Y2K6; DUSP2; 776; 894; 6xHis-GST (N, cleaved yes); made in house; host or cells: Escherichia coli BL21-Gold (DE3)
Experimental: (§1) Proteins were expressed in Escherichia coli (E.coli) BL21-Gold (DE3) bacteria. The cDNAs encoding N-terminal 6-histidine-glutathione S-transferase tagged (6xHis-GST), 6xHis-tagged or GST-tagged protein domains in pETM33, pETM11, pGEX6P1 expression vectors respectively, were obtained from Genescript or kindly provided by MRC-PPU (Suppl. Data 1) The bacteria were transformed with the plasmid and grew at 37 °C in 2YT (5 g/L NaCl, 16 g/L tryptone and 10 g/L yeast extract) supplemented with Kanamycin (30 μg/mL) until reaching an OD600 of 0.7. Protein expression was induced with 0.3 mM isopropyl β-D-1 thiogalactopyranoside (IPTG) for 18 h at 18 °C while shaking. For zinc-finger domains, 50 μM of ZnSO4 was added during expression. The bacterial cultures were pelleted for 15 minutes at 4000 x g at 4 °C and stored at −20 °C until purification. The pellets were resuspended in lysis buffer (1× phosphate-buffered saline (PBS), 0.5 % Triton-X, 5 mM MgCl2, 10 μg/mL lysozyme, cOmplete^TM EDTA-free protease inhibitor cocktail (Roche), 10 μg/mL DNAseI) and incubated for 1 h shaking at 4 °C. […] The supernatant was incubated with glutathione (GSH) Sepharose (Cytiva) or Ni2+ Sepharose (Cytiva) for 1 h at 4 °C while shaking. The beads with the bound protein were washed with 1x PBS and eluted with 10 mM reduced glutathione in 50 mM Tris pH 8.0. For fluorescence polarization experiments, the proteins were not eluted from the beads, and the 6xHis-GST tag was cleaved overnight on GSH Sepharose beads at 4 °C while shaking with PreScission Protease in cleavage buffer (50 mM Tris pH 7.5, 150 mM NaCl, 1 mM DTT). The sample containing the cleaved domain was separated from the tag and protease and buffer-exchanged to 50 mM sodium phosphate buffer pH 7.4 with 1 mM DTT using a PD-10 desalting column (Cytiva). The purity and size of the proteins were analyzed by SDS-PAGE electrophoresis.
(§2) The measurements were performed at room temperature in a non-binding black half area 96-well plate (Corning) with a total volume of 50 μL per well. Peptides were obtained from GeneCust (France) with >95% purity. FITC-labeled peptides (N-terminally FITC-labeled without spacer and C-terminally amidated) were dissolved in dimethyl sulfoxide (DMSO), and unlabeled peptides (N-terminally acetylated and C-terminally amidated) were dissolved in 50 mM phosphate buffer pH 7.4. Saturation measurements were performed using a serial dilution of the protein domains in phosphate buffer (25 μL) and the addition of 10 nM FITC-labeled peptide (in phosphate buffer supplemented with 2 mM DTT) (25 μL). […] All measurements were performed in three technical replicates. The data were analyzed using GraphPad Prism version 9.2.0 for MacOS (GraphPad Software, San Diego, California USA, www.graphpad.com). The saturation curves were fitted to the quadratic equation, and the displacement curves were fitted to a sigmoidal dose-response equation as described previously.

USP33 DUSP2 domain [2] = biological target: T2, USP33 DUSP2 domain (Homo sapiens, UniProt Q8TEY7); test: FP-monitored affinity measurements, USP33 DUSP2; assay type: binding; settings: competitive FP: unlabeled peptide (N-acetylated, C-amidated) against protein with 10 nM FITC-labeled peptide; 50 mM phosphate pH 7.4, room temperature; technical triplicate; read-out: KD, USP33 DUSP2
T2 construct: USP33_DUSP2; Q8TEY7; DUSP2; 806; 921; 6xHis-GST (N, cleaved yes); made in house; host or cells: Escherichia coli BL21-Gold (DE3)
T2 sequence (Q8TEY7 with tags, fused parts or gaps): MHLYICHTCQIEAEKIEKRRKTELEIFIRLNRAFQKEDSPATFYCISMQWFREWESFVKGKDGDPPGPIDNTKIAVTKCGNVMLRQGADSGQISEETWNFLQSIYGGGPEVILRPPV
Experimental: as §1, §2

[3] = test system: USP auxiliary domains and full-length CYLD and USP7 (baits); test: ProP-PD selections against the HD2 library; assay type: binding, human; settings: for mean_counts_% / specificity: ProP-PD peptide level
Experimental: We generated a collection of 29 USP ADs and two full-length USPs (CYLD and USP7). The collection was biased towards domains that are present in several USPs, such as zf-UBP domains, UBL domains and DUSP domains (Suppl. Data 1). We also included ADs only found in specific USPs, such as the three CAP-Gly domains of CYLD and the C-terminal domain of USP25. […] The peptide-coding regions of the phage pools were analyzed by next-generation sequencing (NGS), mapped to the corresponding proteins, and filtered for high/medium confidence ligands based on established criteria (with confidence level 4 being the highest).
as §1
The human disorderome library was used for four rounds of phage display selections. GST-tagged, 6xHis-tagged or GST-6xHis purified proteins were used as baits and GST was used as control by immobilization on a 96-well MaxiSorp plate (Nunc) overnight at 4 °C while shaking (10 μg of protein in 100 μL PBS). The wells containing the immobilized proteins were blocked with 0.5% BSA in PBS for 1 hour at 4 °C while shaking. The phage library was prepared by precipitation in 1/5th volume PEG/NaCl (20% PEG-8000 + 0.4 M NaCl), incubated for 10 min on ice, followed by centrifugation at 10,000 × g for 10 min at 4 °C and resuspended in PBS. The GST-coated wells were washed four times with 0.05% Tween 20 in PBS, and 100 μL/well phage library was added and incubated 1 h at 4 °C while shaking. The protein-coated wells were washed four times with 0.05% Tween 20 in PBS, and the phage solution from the GST-coated wells was transferred to the protein-coated wells and incubated 2 h at 4 °C while shaking. The unbound phages were removed by washing 5 times with 0.05% Tween 20 in PBS, and the bound phages were eluted with 100 μL/well log-phase E.coli OmniMAX by incubating for 30 min at 37 °C while shaking. M13KO7 helper phages (10^11 PFU/mL) were added to each well and incubated for 45 min at 37 °C while shaking. […]

USP20 DUSP2 domain [4] = biological target: T1, USP20 DUSP2 domain; test: Peptide SPOT array, USP20 DUSP2; assay type: binding; settings: for Average: peptide SPOT array intensity minus background, mean of 2 replicas; for Average / Normalize to peptide with higher intensity %: sheet S5A; for Normalize to higher intensity (%) / Normalize to peptide with higher intensity %: peptide SPOT array; for Normalize to higher intensity (%): USP20 DUSP2, average normalised to the highest intensity (ARNTL2 = 100); for Normalize to peptide with higher intensity %: average normalized to the peptide with highest intensity (ARNTL2 = 100);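 on all read-outs here: GST-tagged domain probed overnight at 4 °C on peptides made on cellulose membranes, bound protein detected via HRP-coupled anti-GST antibody, spot intensity from image analysis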
Experimental: (§3) Peptides were synthesized on cellulose membranes with standard Fluoroenylmethylox-ycarbonyl (Fmoc) chemistry using a Multipep automated synthesizer at INTAVIS (Tübingen, Germany) or ordered from JPT (PepSpots). The membranes were activated with methanol for 5 min and washed three times for 5 min with TBST (50 mM Tris, 137 mM NaCl, 2.7 mM KCl, pH 8.0, 0.05% Tween-20). The membranes were incubated with blocking buffer (5% skim milk powder in TBST) for 2 h at room temperature while shaking. The membranes were incubated with the GST-tagged protein diluted at the desired concentration in blocking buffer and incubated overnight at 4 °C while shaking. The membrane was rinsed 3 times with TBST and incubated with HRP-conjugated anti-GST antibody (Cytiva, RPN1236; 1:3000 dilution) in blocking buffer for 1 h at 4 °C while shaking. […] The images were analyzed in Fiji (ImageJ2 version 2.9.0).

USP33 DUSP2 domain [5] = biological target: T2, USP33 DUSP2 domain; test: Peptide SPOT array, USP33 DUSP2; assay type: binding; settings: average normalised to the highest intensity (CCDC88B = 100)
Experimental: as §3

[6] = bait CYLD_CAP-Gly-2 (Q9NQC7 235-307), collapsed regions of overlapping peptides
[7] = bait CYLD_CAP-Gly-2 (Q9NQC7 235-307)
[8] = bait CYLD_CAP-Gly-1 (Q9NQC7 8-210), collapsed regions of overlapping peptides

T1 sequence (Q9Y2K6 with tags, fused parts or gaps): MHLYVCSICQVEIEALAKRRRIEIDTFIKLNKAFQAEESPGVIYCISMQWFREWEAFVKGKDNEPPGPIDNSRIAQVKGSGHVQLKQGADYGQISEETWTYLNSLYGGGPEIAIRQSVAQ

Average (USP20 DUSP2 domain [4]) | Normalize to higher intensity (%) (USP20 DUSP2 domain [4]) | Normalize to peptide with higher intensity % (USP20 DUSP2 domain [4]) [%] | Normalize to higher intensity (%) (USP33 DUSP2 domain [5]) | Molecule | other results
 |  |  |  | CC[C@H](C)[C@H](NC(=O)[C@H](Cc1ccc(O)cc1)NC(=O)[C@@H]1CCCN1)C(=O)N1CCC[C@H]1C(=O)N[C@@H](CCSC)C(=O)N[C@@H](CC(=O)O)C(=O)N[C@@H](CC(=O)O)C(=O)N[C@@H](CC(=O)O)C(=O)N[C@@H](C)C(=O)N[C@@H](CCC(N)=O)C(=O)N[C@@H](CC(C)C)C(=O)N[C@@H](CCCNC(=N)N)C(=O)N[C@@H](CO)C(=O)N[C@@H](Cc1ccccc1)C(=O)N[C@@H](CC(=O)O)C(=O)N[C@@H](CCC(N)=O)C(=O)N[C@@H](CC(C)C)C(=O)N[C@@H](CO)C(=O)O [F572A] | Kd (USP20 DUSP2 domain [1]; competitive FP: unlabeled peptide (N-acetylated, C-amidated) against protein with 10 nM FITC-labeled peptide, 50 mM phosphate pH 7.4, room temperature, technical triplicate, read-out: KD, USP20 DUSP2): > 600 µM; Kd (USP33 DUSP2 domain [2]): > 900 µM
 |  |  |  | VAEMVALVEQRA | max_specificity [3, 6]: 1.00
72.2767 | 40.47 | 40.4726 | 49.982 | KGHSRDFVLRRDLSAT [ZIC5] | 
-31.4033 | -17.58 | -17.5849 | 10.516 | EKEDSCFELLHRAVGH [ASB8] | 
-0.4433 | -0.2483 | -0.2483 | 1.956 | EGTEVAFPLLVSHRSQ [EMSY] | 
44.4667 | 24.9 | 24.8999 | 27.858 | LRHPSGWWLVENEDRQ [NOXO1] | 
 |  |  |  | WRFEQLEWRSILLDMA | max_specificity [3, 6]: 0.60
27.0767 | 15.16 | 15.1621 | 19.7113 | GGLTDLSSLIQAGQQF [SGTB] | 
7.792 | 4.363 | 4.363 | 22.3834 | NGLDIAPRYFGFIKAC [SLC17A1] | 
 |  |  |  | SQQDAQEFLRALMDLL | mean_counts_% [3, 7]: 30.84%; specificity [3, 7]: 0.87; max_specificity [3, 6]: 0.87
138.987 | 77.83 | 77.8281 | 61.0297 | KMGSDEFDISPRISKQ [MGA] | 
 |  |  |  | CC[C@H](C)[C@H](NC(=O)[C@H](Cc1ccc(O)cc1)NC(=O)[C@@H]1C[C@@H](O)CN1C(C)=O)C(=O)N1CCC[C@H]1C(=O)N[C@@H](CCSC)C(=O)N[C@@H](CC(=O)O)C(=O)N[C@@H](CC(=O)O)C(=O)N[C@@H](CC(=O)O)C(=O)N[C@@H](Cc1ccccc1)C(=O)N[C@@H](CCC(N)=O)C(=O)N[C@@H](CC(C)C)C(=O)N[C@@H](CCCNC(=N)N)C(=O)N[C@@H](CO)C(=O)N[C@@H](Cc1ccccc1)C(=O)N[C@@H](CC(=O)O)C(=O)N[C@@H](CCC(N)=O)C(=O)N[C@@H](CC(C)C)C(=O)N[C@@H](CO)C(N)=O [HyPro-HIF1A564-581] | Kd (USP33 DUSP2 domain [2]): 7 µM
 |  |  |  | TWWDRYEEFVGLNEVR | mean_counts_% [3, 7]: 3.88%; specificity [3, 7]: 0.28; max_specificity [3, 6]: 0.28
 |  |  |  | VAEMVALVEQRAALAL | mean_counts_% [3, 7]: 0.0147%; specificity [3, 7]: 0.48
 |  |  |  | PDAELQRMEQEAERRR [RBM25_558-573] | specificity ([3]; bait CYLD_CAP-Gly-1 (Q9NQC7 8-210)): 0.95; max_confidence [3, 8]: 2; max_specificity [3, 8]: 0.95
-22.4783 | -12.59 | -12.5871 | 29.5039 | EEDVLAFNLQHLATLA [BAHCC1_1] | 
178.582 | 100 | 100 | 36.7483 | KEQLSSFDISPREKLI [ARNTL2] | 
-15.5033 | -8.681 | -8.681 | -24.9243 | ATLATAWSLVEAAGLD [BAHCC1_2] | 
-16.4483 | -9.211 | -9.211 | 68.6966 | EAGLALRTDLQGEAQI [ZNF783] | 
-28.3983 | -15.9 | -15.9022 | -36.2833 | VKHPRFFALFEKHGGY [PPIP5K1] | 
51.5267 | 28.85 | 28.8533 | 42.7122 | RLQKDIWDIQMRSKSL [GBP2] | 
 |  |  |  | DLLSVAEMVALVEQRA [FBXO46_168-183] | mean_counts_% [3, 7]: 16.99%; specificity [3, 7]: 1.00
 |  |  |  | PYIPMDDDFQARSFDQLS [L574A] | Kd (USP33 DUSP2 domain [2]): > 200 µM
-8.778 | -4.916 | -4.916 | -0.2743 | MNFNVWNIKEMLSIPS [IHO1] | 
 |  |  |  | Ac-PYIPMDKDFQLRSFDQLS-NH2 [D570K] | Kd (USP33 DUSP2 domain [2]): 10 µM
 |  |  |  | Ac-PYIPMDKDFQLRSFDQLS-NH2 [HIF1A_D570K] | Kd (USP20 DUSP2 domain [1]; USP20_DUSP2, FP displacement by unlabelled peptide, read-out: KD): 18.8 µM
40.0217 | 22.41 | 22.4108 | 25.9612 | QPIDNSFDIQSRDCIS [MAP3K4] | 
